Reference: the NIST ThermoML archive (doi:10.1021/je5010643)
Numbers after ± are expanded uncertainties.

Experiment: refractive index (Na D-line) (dimensionless); xn = mol fraction of the nth substance listed
Conditions: 101.32 kPa, Liquid, Standard Abbe refractometry

CC(C)C(=O)O [2-methylpropanoic acid] + C1COCCO1
refractive index
Conditions | x2 = 0 | x2 = 0.1 | x2 = 0.2 | x2 = 0.3 | x2 = 0.4 | x2 = 0.5 | x2 = 0.6 | x2 = 0.7 | x2 = 0.8 | x2 = 0.9
295.15 K | 1.3919 ± 0.0004 | 1.3955 ± 0.0004 | 1.3988 ± 0.0004 | 1.4021 ± 0.0004 | 1.4052 ± 0.0004 | 1.4082 ± 0.0004 | 1.411 ± 0.0004 | 1.4137 ± 0.0004 | 1.4161 ± 0.0004 | 1.4185 ± 0.0004
298.15 K | 1.3907 ± 0.0004 | 1.3942 ± 0.0004 | 1.3974 ± 0.0004 | 1.4007 ± 0.0004 | 1.4038 ± 0.0004 | 1.4068 ± 0.0004 | 1.4096 ± 0.0004 | 1.4122 ± 0.0004 | 1.4146 ± 0.0004 | 1.4171 ± 0.0004
301.15 K | 1.3895 ± 0.0004 | 1.3929 ± 0.0004 | 1.3961 ± 0.0004 | 1.3993 ± 0.0004 | 1.4024 ± 0.0004 | 1.4054 ± 0.0004 | 1.4082 ± 0.0004 | 1.4107 ± 0.0004 | 1.4132 ± 0.0004 | 1.4156 ± 0.0004
304.15 K | 1.3883 ± 0.0004 | 1.3916 ± 0.0004 | 1.3948 ± 0.0004 | 1.3979 ± 0.0004 | 1.401 ± 0.0004 | 1.4039 ± 0.0004 | 1.4067 ± 0.0004 | 1.4093 ± 0.0004 | 1.4117 ± 0.0004 | 1.4141 ± 0.0004
307.15 K | 1.3872 ± 0.0004 | 1.3904 ± 0.0004 | 1.3936 ± 0.0004 | 1.3967 ± 0.0004 | 1.3997 ± 0.0004 | 1.4026 ± 0.0004 | 1.4054 ± 0.0004 | 1.4079 ± 0.0004 | 1.4103 ± 0.0004 | 1.4127 ± 0.0004
310.15 K | 1.386 ± 0.0004 | 1.3891 ± 0.0004 | 1.3923 ± 0.0004 | 1.3953 ± 0.0004 | 1.3983 ± 0.0004 | 1.4011 ± 0.0004 | 1.4038 ± 0.0004 | 1.4063 ± 0.0004 | 1.4087 ± 0.0004 | 1.4112 ± 0.0004
313.15 K | 1.3849 ± 0.0004 | 1.3879 ± 0.0004 | 1.391 ± 0.0004 | 1.3941 ± 0.0004 | 1.397 ± 0.0004 | 1.3998 ± 0.0004 | 1.4025 ± 0.0004 | 1.4049 ± 0.0004 | 1.4073 ± 0.0004 | 1.4098 ± 0.0004
